Measurements reported in ChEMBL document CHEMBL1150850, “Cytotoxic principles from Ventilago leiocarpa” (J Nat Prod, 2001).
One block for each compound: values may come before it.

Legend:
[1] = test system: Vero; assay: Inhibition of african green monkey Vero cell proliferation assessed as [3H]thymidine incorporation after 3 days by scintillation counting; type: cell-based; settings: Chlorocebus sabaeus
[2] = test system: Calu-1; assay: Inhibition of human Calu1 cell proliferation assessed as [3H]thymidine incorporation after 3 days by scintillation counting; type: functional, cell-based
[3] = test system: WISH; assay: Inhibition of human WISH cell proliferation assessed as [3H]thymidine incorporation after 3 days by scintillation counting; type: functional, cell-based
[4] = test system: K562; assay: Inhibition of human K562 cell proliferation assessed as [3H]thymidine incorporation after 3 days by scintillation counting; type: functional, cell-based
[5] = test system: Raji; assay: Inhibition of human Raji cell proliferation assessed as [3H]thymidine incorporation after 3 days by scintillation counting; type: functional, cell-based
[6] = test system: HeLa; assay: Inhibition of human HeLa cell proliferation assessed as [3H]thymidine incorporation after 3 days by scintillation counting; type: functional, cell-based
[7] = test system: Raji; assay: Growth inhibition of human Raji cells assessed as [3H]thymidine incorporation at 25 uM after 3 days by scintillation counting; type: functional; settings: read-out: GI
[8] = test system: HeLa; assay: Growth inhibition of human HeLa cells assessed as [3H]thymidine incorporation at 25 uM after 3 days by scintillation counting; type: functional; settings: read-out: GI
[9] = test system: WISH; assay: Growth inhibition of human WISH cells assessed as [3H]thymidine incorporation at 6.25 uM after 3 days by scintillation counting; type: functional; settings: read-out: GI
[10] = test system: Calu-1; assay: Growth inhibition of human Calu1 cells assessed as [3H]thymidine incorporation at 25 uM after 3 days by scintillation counting; type: functional; settings: read-out: GI
[11] = Growth inhibition of african green monkey Vero cells assessed as [3H]thymidine incorporation at 6.25 uM after 3 days by scintillation counting; type: cell-based; settings: chlorocebus sabaeus, read-out: GI
[12] = Growth inhibition of african green monkey Vero cells assessed as [3H]thymidine incorporation at 25 uM after 3 days by scintillation counting; type: cell-based; settings: chlorocebus sabaeus, read-out: GI
[13] = Growth inhibition of african green monkey Vero cells assessed as [3H]thymidine incorporation at 50 uM after 3 days by scintillation counting; type: cell-based; settings: chlorocebus sabaeus, read-out: GI
[14] = test system: Raji; assay: Growth inhibition of human Raji cells assessed as [3H]thymidine incorporation at 12.5 uM after 3 days by scintillation counting; type: functional; settings: read-out: GI
[15] = test system: Vero; assay: Growth inhibition of african green monkey Vero cells assessed as [3H]thymidine incorporation at 12.5 uM after 3 days by scintillation counting; type: cell-based; settings: chlorocebus sabaeus, 72 h
[16] = test system: HeLa; assay: Growth inhibition of human HeLa cells assessed as [3H]thymidine incorporation at 50 uM after 3 days by scintillation counting; type: functional; settings: read-out: GI
[17] = test system: HeLa; assay: Growth inhibition of human HeLa cells assessed as [3H]thymidine incorporation at 12.5 uM after 3 days by scintillation counting; type: functional; settings: read-out: GI
[18] = test system: HeLa; assay: Growth inhibition of human HeLa cells assessed as [3H]thymidine incorporation at 100 uM after 3 days by scintillation counting; type: functional; settings: read-out: GI
[19] = test system: K562; assay: Growth inhibition of human K562 cells assessed as [3H]thymidine incorporation at 100 uM after 3 days by scintillation counting; type: functional; settings: read-out: GI
[20] = test system: Calu-1; assay: Growth inhibition of human Calu1 cells assessed as [3H]thymidine incorporation at 100 uM after 3 days by scintillation counting; type: functional; settings: read-out: GI
[21] = test system: Raji; assay: Growth inhibition of human Raji cells assessed as [3H]thymidine incorporation at 6.25 uM after 3 days by scintillation counting; type: functional; settings: read-out: GI
[22] = test system: HeLa; assay: Growth inhibition of human HeLa cells assessed as [3H]thymidine incorporation at 6.25 uM after 3 days by scintillation counting; type: functional; settings: read-out: GI
[23] = test system: WISH; assay: Growth inhibition of human WISH cells assessed as [3H]thymidine incorporation at 100 uM after 3 days by scintillation counting; type: functional; settings: read-out: GI
[24] = test system: WISH; assay: Growth inhibition of human WISH cells assessed as [3H]thymidine incorporation at 50 uM after 3 days by scintillation counting; type: functional; settings: read-out: GI
[25] = test system: WISH; assay: Growth inhibition of human WISH cells assessed as [3H]thymidine incorporation at 12.5 uM after 3 days by scintillation counting; type: functional; settings: read-out: GI
[26] = test system: Calu-1; assay: Growth inhibition of human Calu1 cells assessed as [3H]thymidine incorporation at 12.5 uM after 3 days by scintillation counting; type: functional; settings: read-out: GI
[27] = test system: Calu-1; assay: Growth inhibition of human Calu1 cells assessed as [3H]thymidine incorporation at 50 uM after 3 days by scintillation counting; type: functional; settings: read-out: GI
[28] = test system: WISH; assay: Growth inhibition of human WISH cells assessed as [3H]thymidine incorporation at 25 uM after 3 days by scintillation counting; type: functional; settings: read-out: GI
[29] = Growth inhibition of african green monkey Vero cells assessed as [3H]thymidine incorporation at 100 uM after 3 days by scintillation counting; type: cell-based; settings: chlorocebus sabaeus, read-out: GI
[30] = test system: Raji; assay: Growth inhibition of human Raji cells assessed as [3H]thymidine incorporation at 50 uM after 3 days by scintillation counting; type: functional; settings: read-out: GI
[31] = test system: Raji; assay: Growth inhibition of human Raji cells assessed as [3H]thymidine incorporation at 100 uM after 3 days by scintillation counting; type: functional; settings: read-out: GI
[32] = test system: Calu-1; assay: Growth inhibition of human Calu1 cells assessed as [3H]thymidine incorporation at 6.25 uM after 3 days by scintillation counting; type: functional; settings: read-out: GI

Structure (SMILES): Cc1cc(O)c2c(c1)C(=O)c1cc(O)cc(O)c1C2=O [EMODIN]
IC50 [1]: 40 µM
inhibition of growth at 25 µM [7]: 45.8%
inhibition of growth at 25 µM [8]: 78.3%
inhibition of growth at 6.25 µM [9]: 8.7%
IC50 [2]: 6.25 µM
inhibition of growth at 25 µM [10]: 100%
inhibition at 72 h, 6.25 µM [11]: 3.3%
inhibition at 72 h, 25 µM [12]: 26.7%
inhibition at 72 h, 50 µM [13]: 64.4%
IC50 [3]: 28.8 µM
inhibition of growth at 12.5 µM [14]: 41.2%
growth inhibition (GI) [15]: 13.7%
inhibition of growth at 50 µM [16]: 100%
inhibition of growth at 12.5 µM [17]: 41.9%
inhibition of growth at 100 µM [18]: 100%
inhibition of growth at 100 µM [19]: 29.5%
inhibition of growth at 100 µM [20]: 100%
inhibition of growth at 6.25 µM [21]: 0.3%
inhibition of growth at 6.25 µM [22]: 24.7%
inhibition of growth at 100 µM [23]: 80.7%
IC50 [4]: > 100 µM
inhibition of growth at 50 µM [24]: 63.3%
inhibition of growth at 12.5 µM [25]: 22%
inhibition of growth at 12.5 µM [26]: 60.6%
inhibition of growth at 50 µM [27]: 100%
inhibition of growth at 25 µM [28]: 61.9%
inhibition at 72 h, 100 µM [29]: 69.1%
inhibition of growth at 50 µM [30]: 47.2%
inhibition of growth at 100 µM [31]: 100%
IC50 [5]: 43.8 µM
IC50 [6]: 15.6 µM
inhibition of growth at 6.25 µM [32]: 49.4%

Structure (SMILES): O=C1c2c(O)cc(O)cc2O[C@H](c2ccc(O)cc2)[C@H]1O [DIHYDROKAEMPFEROL]
IC50 [1]: > 100 µM
IC50 [2]: > 100 µM
IC50 [3]: > 100 µM
IC50 [4]: > 100 µM
IC50 [5]: > 100 µM
IC50 [6]: > 100 µM

Structure (SMILES): C=C(C)[C@@H]1CC[C@]2(C)CC[C@]3(C)[C@H](CC[C@@H]4[C@@]5(C)CC[C@H](O)C(C)(C)[C@@H]5CC[C@]43C)[C@@H]12 [LUPEOL]
IC50 [1]: > 100 µM
IC50 [2]: > 100 µM
IC50 [3]: > 100 µM
IC50 [4]: > 100 µM
IC50 [5]: > 100 µM
IC50 [6]: > 100 µM

Continued, in another order:

IC50 [2]: > 100 µM
IC50 [4]: > 100 µM
IC50 [5]: > 100 µM
IC50 [6]: > 100 µM
Structure (SMILES): COC1=C(O)C(=O)c2c(cc3c(c2O)C(C)OC(C)C3)C1=O (stereo not drawn) [VENTILOQUINONE I]
IC50 [1]: > 100 µM
IC50 [3]: > 100 µM

IC50 [2]: > 100 µM
IC50 [4]: > 100 µM
IC50 [5]: > 100 µM
IC50 [6]: > 100 µM
Structure (SMILES): COc1cc(C)c(O)c2c1C(=O)c1c(O)cccc1C2=O
IC50 [1]: > 100 µM
IC50 [3]: > 100 µM

IC50 [2]: > 100 µM
IC50 [4]: > 100 µM
IC50 [5]: > 100 µM
IC50 [6]: > 100 µM
Structure (SMILES): COc1cc(O)c2c(c1)C(=O)c1c(O)c(C)cc(O)c1C2=O [PARIETIN]
IC50 [1]: > 100 µM
IC50 [3]: > 100 µM

IC50 [2]: > 100 µM
IC50 [4]: > 100 µM
IC50 [5]: > 100 µM
IC50 [6]: > 100 µM
Structure (SMILES): Cc1cc(O)c2c(c1O)C(=O)c1cc(O)cc(O)c1C2=O [CATENARIN]
IC50 [1]: > 100 µM
IC50 [3]: > 100 µM
